# From ChEMBL document CHEMBL1135443, “Acyclic nucleoside analogues as novel inhibitors of human mitochondrial thymidine kinase” (J Med Chem, 2002)
# How the values were obtained:
# [1] = biological target: Thymidine kinase 2, mitochondrial (Homo sapiens) (UniProt O00142)
# [2] = tested on: Thymidine kinase (Herpes simplex virus type 1); details: Human alphaherpesvirus 1
# Thymidine kinase 2, mitochondrial (Homo sapiens), sequence (O00142 whole entry, looked up): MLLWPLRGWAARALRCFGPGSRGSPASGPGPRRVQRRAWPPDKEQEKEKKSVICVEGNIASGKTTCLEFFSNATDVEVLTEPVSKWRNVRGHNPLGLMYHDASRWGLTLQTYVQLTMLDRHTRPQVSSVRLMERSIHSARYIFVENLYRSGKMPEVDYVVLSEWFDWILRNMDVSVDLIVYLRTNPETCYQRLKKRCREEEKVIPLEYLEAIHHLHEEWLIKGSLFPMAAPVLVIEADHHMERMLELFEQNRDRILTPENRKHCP
Structure (SMILES),NEA [1],NEA [2]
Cc1cn(Cc2ccccc2COC(c2ccccc2)(c2ccccc2)c2ccccc2)c(=O)[nH]c1=O,Not estimated accurately,Not estimated accurately
Cc1cn(C/C=C\CO)c(=O)[nH]c1=O,Not estimated accurately,Not estimated accurately
COc1ccc(C(OC[C@H]2O[C@@H](n3cc(C)c(=O)[nH]c3=O)C[C@@H]2O)(c2ccccc2)c2ccc(OC)cc2)cc1,Not estimated accurately,–

# The remaining lines, values ahead:
NEA [1],NEA [2],Structure (SMILES)
Not estimated accurately,Not estimated accurately,Cc1cn(C/C=C\COC(c2ccccc2)(c2ccccc2)c2ccccc2)c(=O)n(C)c1=O
Not estimated accurately,–,Cc1cn(CC#CCOC(c2ccccc2)(c2ccccc2)c2ccccc2)c(=O)[nH]c1=O
Not estimated accurately,Not estimated accurately,Cc1cn(C/C=C\COC(c2ccccc2)(c2ccccc2)c2ccccc2)c(=O)nc1N
Not estimated accurately,Not estimated accurately,Nc1nc(O)c2ncn(C/C=C\COC(c3ccccc3)(c3ccccc3)c3ccccc3)c2n1
